Experiments:
[1] = Hydrolysis in rat intestinal microsomes; type: in vitro ADME
From the text: (§1) The physiologically based pharmacokinetic/pharmacodynamic model of the present invention contains a series of compartments that describe the time course of a nonsteroidal anti-inflammatory prodrug, its active metabolites and nitric oxide release in intestine, liver, kidneys, blood/plasma and heart after prodrug administration. The time course of the prodrug, its active metabolites and nitric oxide release can be simulated using a series of in vitro and in silico inputs. The stability of each component in the gastrointestinal lumen is estimated using data collected from artificial gastric and intestinal juice. Intestinal metabolism is estimated using intestinal microsomes and absorption rate is estimated using permeability data collected from a cell monolayer such as Caco-2. Hepatic elimination is estimated using liver microsomes and stability in plasma is calculated using degradation of each component in the media. Plasma protein binding can either be measured using a standardized in vitro method or it can be estimated using an in silico method. The distribution of each component in various parts of the body is estimated using an in silico method. The rate of nitric oxide release is estimated using an in vitro endothelial cell model. The time course of prodrug, its active metabolites and nitric oxide can be simulated in human and animal using this physiologically based pharmacokinetic/pharmacodynamic model provided that the corresponding in vitro and in silico data are used as inputs.
(§2) Representative in vitro tests or in silico estimates include: (a) pKa estimation or measurement; (b) Log P measurement or in silico estimation; (c) Solubility in various physiological fluids; (d) Permeability. Caco-2 and/or NOVOKIN's proprietary animal and human cell lines can be used to obtain this parameter; (e) Metabolic rate in the intestine and liver. Human or animal intestinal microsomes, S9 fraction, and cytosol can be used for this purpose. Human or animal hepatocytes, liver microsomes, S9 fraction, and cytosol can also be used; (f) Hydrolysis in human or animal plasma; (g) Serum or plasma protein binding. It can be measured in vitro or estimated in silico; (h) The rate of NO release; (i) Existing pharmacokinetic and pharmacodynamic data of NSAID or a biocompatible agent; (j) Existing NO release rate of known diazeniumdiolate if applicable; (k) Stability in gastric and intestinal environment; and (l) In silico volume of distribution estimation.
(§3) Whenever in vitro estimate is attainable, the in vitro results will be used, for example, plasma protein binding. Methods reported by Bowalgaha & Miners (2001), Martignoni et al. (2006), Tong et al. (2001) and Thulesen et al. (1999) were used for in vitro and in vivo scale-up for clearance in the intestine, absorption rate constant and hepatic clearance. The simulation begins with no material in all compartments except for the initial bolus in one compartment (typically the stomach compartment). The simulation then estimates the changing distribution of the material with time.

[2] = Stability in gastric environment (gastric decay rate); type: in vitro ADME
From the text: as §1, §2

[3] = Hydrolysis in human intestinal microsomes; type: in vitro ADME
From the text: as §1
The selection of in vitro tests is designed to provide parameters for the above mentioned model. The use of an inappropriate test would result in wrong predictions. For example, Knaus et al. (2005) used guinea pig serum and porcine esterases to hydrolyze their O^2-substituted diazeniumdiolate derivatives of ASPIRIN, as disclosed in U.S. Ser. No. 60/681,842. These tests provided very little information in terms of in vivo human NO-NSAID metabolism rate and the extent to which metabolic conversion to NO donor and NSAID occurred. […] The half-life values were less than one minute. Based on these observations, it has become apparent that prior to entering the systemic circulation, it is likely that the NO-NSAID would have been hydrolyzed in the enterocytes and little or no NO-NSAID would have been detected in the blood stream. Furthermore, the release of NO will commence immediately once the NO donor is detached from the NSAID.
as §2, §3

Hydrolysis in rat plasma = type: in vitro ADME
From the text: as §1, §2

[4] = Stability in intestinal lumen (decay rate); type: in vitro ADME
From the text: as §1, §2

[5] = Hydrolysis in human liver microsomes; type: in vitro ADME
From the text: as §1, with “The” for “The physiologically based pharmacokinetic/pharmacodynamic model of the present invention contains a series of compartments that describe the time course of a nonsteroidal anti-inflammatory prodrug, its active metabolites and nitric oxide release in intestine, liver, kidneys, blood/plasma and heart after prodrug administration. The”
The selection of in vitro tests is designed to provide parameters for the above mentioned model. The use of an inappropriate test would result in wrong predictions.
as §2
The simulation begins with no material in all compartments except for the initial bolus in one compartment (typically the stomach compartment). The simulation then estimates the changing distribution of the material with time.

[6] = Hydrolysis in rat liver microsomes; type: in vitro ADME
From the text: as §1, §2, §3

[7] = Hydrolysis in various enzymatic preparations (rat and human intestinal and liver microsomes)
[8] = Enzymatic hydrolysis in liver microsomal preparations (LC-MS); type: in vitro ADME; settings: for Time to complete hydrolysis (cleavage of the diazeniumdiolate): liver microsomal preparations
Procedure: The sensitivity of the prodrug 3 towards enzymatic hydrolysis was evaluated by LC-MS. Liver and intestinal microsomal preparations were used. […] However, these rates were slower than the enzymatic hydrolysis rates determined for the conversion of 1→4 and 2→5 (complete hydrolysis observed in 10 and 30 minutes respectively in liver microsomal preparations).

[9] = Chemical stability (loss of diazeniumdiolate) in phosphate buffer; type: physicochemical
Procedure: They varied only in the nitrogen substituent of the amino acid, i.e. free amine (1), acetyl (2) and pivaloyl (3) groups. Their chemical stability was evaluated in phosphate buffer at different pH's over a 30 minute period (Table 11).

male Wistar rats [10] = assay: Gastric ulcer index after oral dosing; type: in vivo, rat; settings: for Ulcer Indices, Mean: oral gavage, naproxen 250 mg/kg or molar equivalent (ROF 250 mg/kg), 6 h after dosing, mean aggregate gastric ulcer length; for Ulcerogenicity (in words): oral, 6 h
Procedure: (§4) Table 1 is a summary of the protocol for a study which was conducted in male Wistar rats weighing 275-300 grams. The animals were allowed to acclimatize for at least five days prior to the commencement of the study. The study protocol was approved by the local animal ethics committee.
(§5) The animals were fasted overnight prior to test substance administration. The test substance was administered orally by gavage on the morning of the study day. All test animals had blood collected during the test period in both EDTA (ethylenediaminetetraacetic acid) tubes and SST (Serum Separator Tubes) at 1, 3 and 6 hours after dosing. Blood was collected into EDTA tubes only at 1 and 3 hours by tail tip amputation. Volume of blood collected was between 0.5 and 1 mL at each of these collections. The final collection was by puncture of the abdominal vena cava under isoflurane general anesthesia. Final blood collection was targeted as follows: 1st EDTA #1—1.5 mL; 2nd SST—1.5 mL; 3rd EDTA #2—as much as possible.
Each animal from all groups underwent a full necropsy under the supervision of a board certified veterinary pathologist. The stomach of each rat was cut along the greater curvature, contents removed into a polypropylene (Falcon) tube, the mucosa rinsed with saline and any obvious ulcers or erosions were measured along the longest axis. This measurement was recorded for each ulcer or erosion observed in each stomach. The falcon tubes and their contents were frozen at −80° C. and shipped to Novokin on dry ice for analysis.
The aggregate length of all gastric ulcers found in a given animal was calculated. The mean aggregate ulcer length across animals in a group was calculated. This mean value was reported as the ulcer index for that group.
The ulcer index of each modified drug was compared with the ulcer index of its associated parent drug and the controls using analysis of variance and Duncan's multiple range test for pairwise comparisons. Statistical analysis was done using SAS® (SAS Institute Inc., Cary, N.C.).

[11] = system: cardiac tissue prostacyclin (PGI2) to thromboxane A2 (TXB2) ratio; assay: Cardiac tissue prostacyclin to thromboxane ratio; type: in vivo, rat; settings: male Wistar rats; for PGI2/TXA2 ratio comparison (in words): cardiac tissue; for Cardiac Tissue PGI2/TXB2, Mean: oral gavage, heart removed 6 hours after dosing
From the text: (§6) Myocardial infarction and ischemic events in high risk patients led one of the most popular COX-2 inhibitors to its demise (Bresalier et al., 2005). Non-selective NSAIDS may also cause similar problems due to their ability to inhibit COX-2. […] Adenosine diphosphate (ADP) generation is an indicator of myocardial infarction which has no connection with the arachidonic acid cascade (Borna et al., 2005). […] Long term NSAID use has been linked to kidney damage and hypertension (Zafirovska et al., 1993). […] This was associated with an increase in the urine the ratio of alanine-amino-peptidase (AAP) and creatinine.
as §4
All rats were euthanized by removal of the heart 6 hours after initial dosing, following final blood collections. Immediately after terminal blood collections were complete, the thorax was opened and the heart removed. The heart was cut in half longitudinally. Half of the heart was placed in formalin for histological examination. The other half was quickly rinsed in saline and then freeze-clamped (crushed between the jaws of a pair of modified tongs, cooled by liquid nitrogen). An entire kidney was freeze-clamped. The other kidney was left in situ for examination by the pathologist. Freeze-clamped tissues were wrapped in labeled aluminum foil and stored in liquid nitrogen until they could be transferred to a −80° C. freezer. Freeze-clamped tissues were shipped on dry ice to NOVOKIN for analysis.

male Wistar rats [12] = assay: Urine N-acetylglucosaminidase to creatinine ratio (distal tubule toxicity); type: in vivo, rat; settings: oral gavage, urine collected for 6 hours
Procedure: as §4
(§7) All test animals, housed in metabolic cages, had urine collected over wet ice for 6 hours after dosing. Aliquots of the urine from each animal were collected to determine creatinine concentration. The remainder of the urine was centrifuged at 1000 g for 10 minutes. The supernatant was collected and mixed with analytical grade ethylene glycol at a rate of 0.4 mL ethylene glycol per 1 mL urine supernatant. The ethylene glycol/urine mixture was stored at −80° C. until analysis.

[13] = Serum nitrate concentration (NO release) after oral dosing; type: in vivo, rat; settings: male Wistar rats, oral gavage, at 6 hours
Procedure: as §4, §5
EDTA samples were centrifuged, and the plasma portion was collected and frozen at −80° C. SST samples were incubated at 37° C. for approximately 45 minutes, centrifuged, and the serum was collected and frozen at −80° C. until analysis.

male Wistar rats [14] = assay: Urine alanine aminopeptidase to creatinine ratio (proximal tubular kidney damage); type: in vivo, rat; settings: for AAP/Cr (urine alanine aminopeptidase to creatinine), Mean: oral gavage, urine collected for 6 hours
From the text: as §6, §4, §7

With `COc1ccc2cc(C(C)C(=O)OCOC(=O)CCC(NC(=O)C(C)(C)C)C(=O)OCON=[N+]([O-])N(C)C)ccc2c1` (stereo not shown) [CMD 113] the “intestinal molar percent conversion to Naproxen” value [1] was 62%, the intestinal microsomal activity ([1]; model input) was 2 mL/min/organ and the “gastric decay rate constant” value ([2]; Human) was 0 /mint. For the same compound, the “gastric decay rate constant” value ([2]; Rat) was 0 /mint, the “intestinal molar percent conversion to Naproxen” value [3] was 75% and the intestinal microsomal activity ([3]; model input) was 4813 mL/min/organ. For the same compound, the “Hydrolysis of the NO-AA in rat plasma (in words)” value (Hydrolysis in rat plasma; NO-AA formed from the prodrug) was “relatively fast rate”, the “plasma decay rate constant” value (Hydrolysis in rat plasma; Rat) was 1.2 min⁻¹ and the “NO-AA half-life in plasma” value (Hydrolysis in rat plasma; Rat, NO-AA formed from the prodrug) was 9.2 min. For the same compound, the “intestinal lumen decay rate constant” value ([4]; Human) was 0.2 min⁻¹, the “intestinal lumen decay rate constant” value ([4]; Rat) was 0.2 min⁻¹ and the “liver molar percent conversion to Naproxen” value [5] was 72%. For the same compound, the liver microsomal activity ([5]; model input) was 434763 mL/min/organ, the “liver molar percent conversion to Naproxen” value [6] was 90% and the liver microsomal activity ([6]; model input) was 6545 mL/min/organ. For the same compound, the “Stability of the NO-AA formed (in words)” value ([7]; intestinal and liver microsomes of human and rats) was “relatively stable” and the “Initial loss of the prodrug candidate (in words)” value ([7]; various enzymatic preparations) was “rapid initial loss”.
For `COc1ccc2cc(C(C)C(=O)OC3CNC(C(=O)OCON=[N+]([O-])N(C)C)C3)ccc2c1` (stereo not shown) [Compound 1], the “Time to complete hydrolysis (cleavage of the diazeniumdiolate)” value [8] was 10 min and the “Chemical stability (in words)” value ([9]; pH range 2.5-7.0, 30 minute period) was “underwent rapid degradation”.
With `COc1ccc2cc(C(C)C(=O)OC3CC(C(=O)OCON=[N+]([O-])N(C)C)N(C(C)=O)C3)ccc2c1` (stereo not shown) [Compound 2] the “Time to complete hydrolysis (cleavage of the diazeniumdiolate)” value [8] was 30 min, the “Stability (loss of diazeniumdiolate), pH 2.5” value ([9]; 30 min, pH 2.5) was “✓” and the “Stability (loss of diazeniumdiolate), pH 5.0” value ([9]; 30 min, pH 5.0) was “✓”. The “Chemical stability (in words)” value ([9]; pH 2.5-5.0, 30 minute period) was “stable” and the “Chemical stability (in words)” value ([9]; pH 7.0, 30 minute period) was “much slower rate of decomposition”.
In the case of `COc1ccc2cc(C(C)C(=O)OCOC(=O)CCC(NC(C)=O)C(=O)OCOC(=O)C(C)c3ccc4cc(OC)ccc4c3)ccc2c1` (stereo not shown) [Compound 9], the “Time to complete hydrolysis (initial cleavage of both esters)” value ([8]; liver microsomes) is reported as 30 min.
In the case of `COc1ccc2cc(C(C)C(=O)OCON=[N+]([O-])N(C)C)ccc2c1` (stereo not shown) [DMA-NO-NAP, dimethylamino-diazeniumdiolate-naproxen], the “Ulcer Indices, Mean” value (male Wistar rats [10]) is reported as 1.695, the “Ulcerogenicity (in words)” value (male Wistar rats [10]) is reported as “somewhat less ulcerogenic” and the “PGI2/TXA2 ratio comparison (in words)” value [11] is reported as “achieving statistical significance (p<0.05)”. The “Cardiac Tissue PGI2/TXB2, Mean” value [11] was 5.157, the “Urine NAG/Cr values, Mean” value (male Wistar rats [12]) was 20.403 and the “Serum Nitrate Concentrations, Mean” value [13] was 768.000. For the same compound, the “AAP/Cr (urine alanine aminopeptidase to creatinine), Mean” value (male Wistar rats [14]) was 132.412.
For `CS(=O)(=O)c1ccc(C2=C(c3ccccc3)C(=O)OC2)cc1` [ROF, Rofecoxib], the “Ulcer Indices, Mean” value (male Wistar rats [10]) was 0.000, the “Ulcerogenicity (in words)” value (male Wistar rats [10]) was “not significantly different from vehicle” and the “PGI2/TXA2 ratio comparison (in words)” value [11] was “lower ratios than vehicle”. For the same compound, the “Cardiac Tissue PGI2/TXB2, Mean” value [11] was 2.765, the “Urine NAG/Cr values, Mean” value (male Wistar rats [12]) was 24.176 and the “Serum Nitrate Concentrations, Mean” value [13] was 55.818. The “Urine AAP/creatinine ratio change (in words)” value (male Wistar rats [14]) was “did cause an increase” and the “AAP/Cr (urine alanine aminopeptidase to creatinine), Mean” value (male Wistar rats [14]) was 538.367.
